Holding throughout (test): IC50 (cell viability, 72 h) (ln(µM))
One assay deals with BICR10. The method, then:
(§1)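 Discovery screen of OSCC cell lines in 1,536-well plates. Cells were treated 24 h after seeding with 7 concentrations spanning a 1,000-fold half-log range for 72 h, and viability was read by CellTiter-Glo 2.0 and normalised to DMSO (1) and medium-only (0) controls. IC50 comes from a two-parameter logistic nonlinear mixed-effects fit and is reported as natural log of IC50 in µM.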

The next assay relates to HO-1-u-1. As to the method:
as §1

A further assay relates to HSC-2. The method, then:
as §1

The next assay relates to HSC-4. As to the method:
as §1

In a further assay the test system is ORL-115. As to the method: as §1
The subject of another assay is ORL-136. As to the method:
as §1

The next assay has as its system ORL-150. As to the method:
as §1

A further assay relates to ORL-153. The method, then: as §1
The next assay has as its system ORL-156. As to the method: as §1
Another assay deals with ORL-166. The method, then: as §1
The next assay relates to ORL-174. As to the method:
as §1

A further assay has as its system ORL-188. The method, then: as §1
The subject of another assay is ORL-195. As to the method:
as §1

In the next assay the test system is ORL-204. As to the method: as §1
Another assay has as its system ORL-207. As to the method:
as §1

The next assay concerns ORL-214. As to the method: as §1
Another assay relates to ORL-215. As to the method: as §1
A further assay has as its system ORL-48. As to the method: as §1
A further assay has as its system PE-CA-PJ15. The method, then:
as §1

The next assay concerns SAS. As to the method:
as §1

The next assay relates to SCC-9. As to the method:
as §1

As for `CC[C@@]1(O)C(=O)OCc2c1cc1n(c2=O)Cc2cc3ccccc3nc2-1` [Camptothecin], the “IC50 (ln)” value in the assay with BICR10 is -1.45; in the assay on HO-1-u-1, -0.864; with HSC-2 it was -4; with HSC-4, -3.06; in the assay on ORL-115, -1.73; with ORL-136 it was -1.37. In addition, the “IC50 (ln)” value with ORL-150 was -3.04; in the assay on ORL-153, -3.34; in the assay on ORL-156, -2.15; in the assay with ORL-166, -3.18; in the assay with ORL-174, -2.91; in the assay with ORL-188, -3.95. The “IC50 (ln)” value with ORL-195 was -2.2; with ORL-204, -3.82; with ORL-207 it was -4.09; in the assay with ORL-214 it was -4.76; in the assay with ORL-215, -2.87; with ORL-48, -2.57. Further, the “IC50 (ln)” value was -2.24 in the assay with PE-CA-PJ15, -4.38 in the assay on SAS and 1.24 with SCC-9.
Regarding `Cc1c2oc3c(C)ccc(C(=O)N[C@@H]4C(=O)N[C@H](C(C)C)C(=O)N5CCC[C@H]5C(=O)N(C)CC(=O)N(C)[C@@H](C(C)C)C(=O)O[C@@H]4C)c3nc-2c(C(=O)N[C@@H]2C(=O)N[C@H](C(C)C)C(=O)N3CCC[C@H]3C(=O)N(C)CC(=O)N(C)[C@@H](C(C)C)C(=O)O[C@@H]2C)c(N)c1=O` [Dactinomycin], the “IC50 (ln)” value in the assay on BICR10 is -3.88; in the assay on HO-1-u-1, -5.18; in the assay with HSC-2 it was -5.7; in the assay on HSC-4, -3.96; in the assay with ORL-115, -4.09; in the assay with ORL-136 it was -4.38. The “IC50 (ln)” value was -5.32 in the assay with ORL-150; -6.27 with ORL-153; -5.7 in the assay on ORL-156; -6.04 in the assay on ORL-166; -5.84 in the assay with ORL-174; -5.69 with ORL-188. In addition, the “IC50 (ln)” value in the assay with ORL-195 is -5.67; in the assay with ORL-204, -4.99; in the assay on ORL-207, -5.32; in the assay on ORL-214 it was -5.57; in the assay on ORL-215 it was -4.6; with ORL-48, -5.43. The “IC50 (ln)” value in the assay with PE-CA-PJ15 was -4.55; in the assay with SAS it was -4.65; with SCC-9, -2.9.
As for `CCc1cnn2c(NCc3ccc[n+]([O-])c3)cc(N3CCCC[C@H]3CCO)nc12` [Dinaciclib], the “IC50 (ln)” value with BICR10 is -2.5; in the assay on HO-1-u-1, -3.83; with HSC-2, -4.36; with HSC-4, -3.41; in the assay with ORL-115, -4.03; in the assay with ORL-136, -2.65. The “IC50 (ln)” value with ORL-150 was -3.93; in the assay on ORL-153, -3.5; in the assay with ORL-156, -4.06; in the assay on ORL-166, -4.64; in the assay with ORL-174, -4.02; in the assay with ORL-188, -4.08. Also, the “IC50 (ln)” value was -3.57 with ORL-195; -3.8 in the assay on ORL-204; -3.83 with ORL-207; -4.09 in the assay with ORL-214; -4.15 in the assay on ORL-215; -3.44 with ORL-48. The “IC50 (ln)” value in the assay with PE-CA-PJ15 was -3.29; in the assay on SAS it was -4.47; in the assay with SCC-9, -1.35.
In the case of `CC(=O)O[C@@]12CO[C@@H]1C[C@H](O)[C@@]1(C)C(=O)[C@H](O)C3=C(C)[C@@H](OC(=O)[C@H](O)[C@@H](NC(=O)OC(C)(C)C)c4ccccc4)C[C@@](O)([C@@H](OC(=O)c4ccccc4)[C@H]21)C3(C)C` [Docetaxel], the “IC50 (ln)” value in the assay with BICR10 is -5.07; with HO-1-u-1, -4.77; with HSC-2, -6.54; in the assay with HSC-4 it was -4.06; with ORL-115, -4.57; in the assay on ORL-136, -2.74. Moreover, the “IC50 (ln)” value was -6.63 in the assay on ORL-150; -5.35 in the assay on ORL-153; -4.72 with ORL-156; -5.53 in the assay with ORL-166; -6.19 with ORL-174; -7 with ORL-188. Moreover, the “IC50 (ln)” value with ORL-195 was -5.11; in the assay on ORL-204, -5.44; in the assay on ORL-207, -6.77; in the assay on ORL-214, -6.46; in the assay with ORL-215 it was -6.3; in the assay on ORL-48 it was -6.36. Further, the “IC50 (ln)” value is -3.61 in the assay on PE-CA-PJ15, -3.91 in the assay on SAS and -3.63 with SCC-9.
As to `CCNC(=O)c1noc(-c2cc(C(C)C)c(O)cc2O)c1-c1ccc(CN2CCOCC2)cc1` [Luminespib], the “IC50 (ln)” value with BICR10 was -3.95; in the assay with HO-1-u-1, -4.16; in the assay on HSC-2, -4.34; with HSC-4 it was -2.55; with ORL-115, -1.26; in the assay with ORL-136, -3.13. The “IC50 (ln)” value in the assay with ORL-150 is -3.97; with ORL-153 it was -3.79; in the assay on ORL-156, -3.29; in the assay with ORL-166 it was -2.05; with ORL-174 it was -4.47; with ORL-188, -4.38. Besides, the “IC50 (ln)” value in the assay on ORL-195 is -4.03; in the assay with ORL-204 it was -2.64; in the assay with ORL-207 it was -4.84; in the assay with ORL-214 it was -4.45; in the assay on ORL-215 it was -3.76; in the assay with ORL-48 it was -4.29. Moreover, the entries for the “IC50 (ln)” value in the assay on PE-CA-PJ15, in the assay on SAS and in the assay with SCC-9 were -2.87, -3.87 and -2.72, respectively.
As to `CC(C)C[C@@H](C=O)NC(=O)[C@H](CC(C)C)NC(=O)[C@H](CC(C)C)NC(=O)OCc1ccccc1` [MG-132], the “IC50 (ln)” value with BICR10 was -0.312; in the assay with HO-1-u-1 it was -1.98; in the assay on HSC-2 it was -1.34; in the assay with HSC-4, -0.832; with ORL-115, -0.897; in the assay on ORL-136 it was -1.24. Further, the “IC50 (ln)” value in the assay on ORL-150 was -0.689; with ORL-153, -1.31; in the assay on ORL-156, -0.951; in the assay on ORL-166, -1.11; in the assay with ORL-174 it was -1.61; in the assay on ORL-188, -1.21. Also, the “IC50 (ln)” value in the assay with ORL-195 is -1.32; in the assay on ORL-204 it was -1.04; in the assay with ORL-207, -1.48; in the assay on ORL-214 it was -1.68; in the assay with ORL-215, -1.39; with ORL-48, -1.04. In addition, the results for the “IC50 (ln)” value with PE-CA-PJ15, with SAS and with SCC-9 were -0.875, -1.28 and -0.805, respectively.
Consider `CC(=O)O[C@H]1C(=O)[C@@]2(C)[C@H]([C@H](OC(=O)c3ccccc3)[C@]3(O)C[C@H](OC(=O)[C@H](O)[C@@H](NC(=O)c4ccccc4)c4ccccc4)C(C)=C1C3(C)C)[C@]1(OC(C)=O)CO[C@@H]1C[C@@H]2O` [Paclitaxel], for which the “IC50 (ln)” value in the assay with BICR10 is -4.85; in the assay with HO-1-u-1, -3.72; with HSC-2 it was -5.85; with HSC-4, -2.73; with ORL-115 it was -4.44; in the assay on ORL-136, -2.48. Moreover, the “IC50 (ln)” value was -6.11 in the assay on ORL-150; -4.87 with ORL-153; -4.99 with ORL-156; -5.21 in the assay with ORL-166; -5.25 in the assay on ORL-174; -6.34 in the assay on ORL-188. Further, the “IC50 (ln)” value with ORL-195 was -4.66; in the assay on ORL-204, -4.96; with ORL-207, -5.88; in the assay with ORL-214, -5.78; with ORL-215, -5.5; with ORL-48, -5.51. The “IC50 (ln)” value with PE-CA-PJ15 is -2.85; in the assay with SAS it was -3.47; with SCC-9, -3.62.

The values are drawn from the supplement of paper PMC11551840.
